Series [1] deals with B-Raf-V600E (Homo sapiens, UniProt P15056, V600E). Put plainly: B-Raf kinase enzyme assay (MEK1/Erk2 cascade, MBP phosphorylation, 32P). The conditions noted are these: read-out: b-raf-V600Ekinase inhibitory activity (IC50). It is filed as biochemical. On the procedure: <1-1> Activation of MAP Kinase 2/Erk2 by B-raf
10 μl magnesium chloride/ATP solution (500 uM ATP, 75 mM magnesium chloride) was seeded in eppendorf tube. 2.5 μl B-Raf-V600E was seed (final conc. 1 ng) in eppendorf tube and treated with 1.6 μl deactivated MEK1 (final conc. 0.4 μg). The mixture was treated with 4 μl deactivated MAP kinase 2/Erk2 (final conc. 1.0 ug). And the mixture was treated with 1 μl example solution (10 mM) dissolved in dimethyl sulfoxide which was orderly diluted. Then, assay dilution buffer I (ADBI I) was added thereto (final vol. 38 μl) to make the final volume of 38 μl, and made it reacted at 30° C. for 30 min. 5 μl of resulting solution was used for the following experiment.
<1-2> Phosphorylation of Myelin basic protein (MBP)
5 μl of the above resulting solution was treated with 10 μl assay dilution buffer, and then treated with 10 μl Myelin basic protein (MBP, 2 mg/Ml). The mixture solution was treated with 10 μl of diluted (1/10) [γ^32P] ATP (100 uCi/vial) which is diluted at 30° C. for 10 min. 25 μl of the mixture solution was spotted onto a P81 paper, and the paper was washed four times with 0.75% phosphoric acid for 10 min and once with acetone for 5 min in scintillation vial. After 5 Ml of scintillation cocktail solution was added in the scintillation vial, signals were analyzed by scintillation counter.

For series [2], the system named is A375P cells. Put plainly: Anti-proliferative activity on A375P cell line (MTT assay). It is filed as cell-based. The conditions noted are these: A375P human melanoma cell line. On the procedure:
A375P cells were purchased from American Type Culture Collection (ATCC, Rockville, Md., US) and maintained in DMEM medium (Welgene, Daegu, Korea) supplemented with 10% FBS (Welgene) and 1% penicillin/streptomycin (Welgene) in a humidified atmosphere with 5% CO2 at 37° C. The A375P cells were taken from culture substrate with 0.05% trypsin-0.02% EDTA and plated at a density of 5×10^3 cells/well in 96 well plates and then incubated at 37° C. for 24 h in a humidified atmosphere with 5% CO2 prior to treatment of various concentration (three fold serial dilution, 12 points) of test compounds. The A357P cell viability was assessed by the conventional 3-(4,5-dimethylthiazol-2-yl)-2,5-diphenyltetrazolium bromide (MTT) reduction assay. MTT assays were carried out with CellTiter 96 (Promega) according to the manufacturer's instructions.
After 1 day, 0.5 μl the representative compounds of the examples were added thereto. The representative compounds of the examples were prepared by three fold serial dilution of 10 mM stock solution in DMSO, 12 point (final conc. DMSO 0.5%). Then, 15 μl dye was added in each well. After 2 h, 100 μl stop solution was added each well. After 24 h, absorbance was measured. The absorbance at 590 nm was recorded using EnVision2103 (PerkinElmer; Boston, Mass., US). The IC50 value was calculated using GraphPad Prism 4.0 software.

Series [3] relates to A375 melanoma cell line. The conditions noted are these: raf-V660E overexpression cell strain; read-out: anti-proliferative activity IC50, A375 melanoma cell line; cited from earlier work.
For series [4] the following is noted: cited from earlier work.
Series [5] deals with T3151-Bcr-Abl. The conditions noted are these: cited from earlier work.
The target of series [6] is Fms (h) (Homo sapiens, UniProt P07333). The series can be described thus: Kinase activity profiling service (Millipore). It is filed as biochemical. The conditions noted are these: read-out: Kinase inhibitory activity (IC50, uM) Fms (h). From the text: (§1) Also, as mentioned above we tested kinase activities of the representative compounds of the examples using Kinase activity profiling service (Millipore UK Ltd Gemini Crescent, Dundee Technology Park, Dundee DD2 1SW, UK).
Chain of Fms (h) (P07333 20-972): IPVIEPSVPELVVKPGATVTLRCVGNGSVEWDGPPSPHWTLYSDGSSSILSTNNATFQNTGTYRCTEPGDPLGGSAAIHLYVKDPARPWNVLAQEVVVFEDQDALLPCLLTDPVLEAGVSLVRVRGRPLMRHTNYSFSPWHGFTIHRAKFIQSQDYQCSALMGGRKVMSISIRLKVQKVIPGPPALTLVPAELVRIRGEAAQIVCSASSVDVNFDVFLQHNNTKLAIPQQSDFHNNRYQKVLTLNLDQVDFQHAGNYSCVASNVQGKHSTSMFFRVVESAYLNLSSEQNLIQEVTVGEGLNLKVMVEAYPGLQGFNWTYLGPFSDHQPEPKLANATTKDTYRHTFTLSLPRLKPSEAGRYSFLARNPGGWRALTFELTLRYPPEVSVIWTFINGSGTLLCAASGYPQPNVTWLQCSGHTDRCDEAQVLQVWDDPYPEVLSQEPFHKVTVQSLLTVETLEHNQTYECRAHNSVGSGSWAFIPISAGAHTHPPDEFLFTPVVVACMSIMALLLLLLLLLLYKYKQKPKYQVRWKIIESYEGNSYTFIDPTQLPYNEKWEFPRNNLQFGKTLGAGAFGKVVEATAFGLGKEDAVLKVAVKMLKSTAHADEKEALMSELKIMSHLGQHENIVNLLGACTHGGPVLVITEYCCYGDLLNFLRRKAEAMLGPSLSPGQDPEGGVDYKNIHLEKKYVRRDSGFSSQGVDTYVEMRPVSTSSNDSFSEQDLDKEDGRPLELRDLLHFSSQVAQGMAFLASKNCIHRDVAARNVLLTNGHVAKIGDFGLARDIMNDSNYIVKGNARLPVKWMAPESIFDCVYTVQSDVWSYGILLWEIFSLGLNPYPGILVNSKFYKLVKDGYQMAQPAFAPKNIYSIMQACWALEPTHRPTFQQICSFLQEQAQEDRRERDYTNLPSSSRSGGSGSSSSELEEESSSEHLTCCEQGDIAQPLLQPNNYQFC

In series [7] the target is KDR (h) (Homo sapiens, UniProt P35968). The series can be described thus: Kinase activity profiling service (Millipore). It is filed as biochemical. The conditions noted are these: read-out: Kinase inhibitory activity (IC50, uM) KDR (h).
Chain of KDR (h) (P35968 20-1356): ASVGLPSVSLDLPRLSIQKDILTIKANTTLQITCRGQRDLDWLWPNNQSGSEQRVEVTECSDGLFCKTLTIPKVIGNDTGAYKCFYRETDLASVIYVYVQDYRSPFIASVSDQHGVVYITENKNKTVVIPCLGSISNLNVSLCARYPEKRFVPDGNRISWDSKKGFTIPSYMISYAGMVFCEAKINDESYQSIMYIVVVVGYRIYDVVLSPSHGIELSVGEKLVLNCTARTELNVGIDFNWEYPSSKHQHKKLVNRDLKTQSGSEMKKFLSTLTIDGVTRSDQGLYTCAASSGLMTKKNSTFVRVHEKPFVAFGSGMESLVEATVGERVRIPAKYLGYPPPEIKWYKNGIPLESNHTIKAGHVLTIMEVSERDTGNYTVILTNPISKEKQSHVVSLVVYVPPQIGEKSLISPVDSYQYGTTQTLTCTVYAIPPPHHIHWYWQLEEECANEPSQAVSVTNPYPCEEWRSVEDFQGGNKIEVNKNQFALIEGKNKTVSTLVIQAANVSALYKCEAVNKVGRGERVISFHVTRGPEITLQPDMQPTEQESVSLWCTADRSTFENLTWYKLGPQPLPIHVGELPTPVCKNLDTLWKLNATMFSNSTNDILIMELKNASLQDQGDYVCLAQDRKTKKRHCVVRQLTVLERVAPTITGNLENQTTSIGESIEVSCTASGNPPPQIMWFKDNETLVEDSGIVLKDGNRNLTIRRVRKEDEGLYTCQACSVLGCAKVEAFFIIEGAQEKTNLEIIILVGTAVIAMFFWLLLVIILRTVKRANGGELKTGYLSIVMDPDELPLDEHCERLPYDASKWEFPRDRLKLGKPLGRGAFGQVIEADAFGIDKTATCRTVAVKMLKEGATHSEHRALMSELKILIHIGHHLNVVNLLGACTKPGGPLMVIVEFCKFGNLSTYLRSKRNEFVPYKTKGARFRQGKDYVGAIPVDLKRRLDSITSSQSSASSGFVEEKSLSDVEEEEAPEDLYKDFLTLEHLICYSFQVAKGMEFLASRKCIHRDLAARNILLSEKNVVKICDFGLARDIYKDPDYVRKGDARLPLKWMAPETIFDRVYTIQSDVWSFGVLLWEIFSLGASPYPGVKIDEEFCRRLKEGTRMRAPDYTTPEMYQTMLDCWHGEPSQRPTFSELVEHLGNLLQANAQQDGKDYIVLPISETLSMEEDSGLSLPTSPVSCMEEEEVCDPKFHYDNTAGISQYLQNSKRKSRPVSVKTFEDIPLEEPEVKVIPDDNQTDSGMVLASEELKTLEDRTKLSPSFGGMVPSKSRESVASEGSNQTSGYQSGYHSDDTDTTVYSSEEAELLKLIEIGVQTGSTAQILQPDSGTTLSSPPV
From the text: as §1

Series [8] addresses Ret (h) (Homo sapiens, UniProt P07949). The series can be described thus: Kinase activity profiling service (Millipore). The class given is biochemical. The conditions noted are these: read-out: Kinase inhibitory activity (IC50, uM) Ret (h).
From the text: as §1

Series [9] addresses SAPK2a (h) (Homo sapiens, UniProt Q16539). Put plainly: Kinase activity profiling service (Millipore). The class given is biochemical. The conditions noted are these: read-out: Kinase inhibitory activity (IC50, uM) SAPK2a (h).
From the text: as §1

For series [10], the target named is Tie2 (h) (Homo sapiens, UniProt Q02763). The series can be described thus: Kinase activity profiling service (Millipore). The class given is biochemical. The conditions noted are these: read-out: Kinase inhibitory activity (IC50, uM) Tie2 (h).
From the text: as §1

The target of series [11] is c-RAF (h) (Homo sapiens, UniProt P04049). Put plainly: Kinase activity profiling service (Millipore). The class given is biochemical. The conditions noted are these: read-out: Kinase inhibitory activity (IC50, uM) c-RAF (h).
Chain of c-RAF (h) (P04049 whole entry): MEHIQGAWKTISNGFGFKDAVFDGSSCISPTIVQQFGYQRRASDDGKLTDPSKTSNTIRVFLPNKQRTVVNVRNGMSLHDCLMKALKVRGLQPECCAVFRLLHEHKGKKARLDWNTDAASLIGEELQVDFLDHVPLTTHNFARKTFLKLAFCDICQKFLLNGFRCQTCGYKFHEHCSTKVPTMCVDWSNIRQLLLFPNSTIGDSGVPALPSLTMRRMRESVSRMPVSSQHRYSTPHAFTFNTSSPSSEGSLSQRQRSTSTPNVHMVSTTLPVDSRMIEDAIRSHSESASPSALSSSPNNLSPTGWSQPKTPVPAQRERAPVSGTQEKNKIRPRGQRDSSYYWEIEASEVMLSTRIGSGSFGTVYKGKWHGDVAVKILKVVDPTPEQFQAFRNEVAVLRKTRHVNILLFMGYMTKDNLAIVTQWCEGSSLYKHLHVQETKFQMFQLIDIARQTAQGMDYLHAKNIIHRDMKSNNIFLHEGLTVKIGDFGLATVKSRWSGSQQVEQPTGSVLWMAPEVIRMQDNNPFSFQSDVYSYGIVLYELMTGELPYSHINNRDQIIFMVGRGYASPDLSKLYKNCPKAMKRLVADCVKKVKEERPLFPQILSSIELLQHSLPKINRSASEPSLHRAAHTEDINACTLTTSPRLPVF
From the text: as §1

Each structure is given as a SMILES string.

Chain of B-Raf-V600E (P15056 whole entry V600E): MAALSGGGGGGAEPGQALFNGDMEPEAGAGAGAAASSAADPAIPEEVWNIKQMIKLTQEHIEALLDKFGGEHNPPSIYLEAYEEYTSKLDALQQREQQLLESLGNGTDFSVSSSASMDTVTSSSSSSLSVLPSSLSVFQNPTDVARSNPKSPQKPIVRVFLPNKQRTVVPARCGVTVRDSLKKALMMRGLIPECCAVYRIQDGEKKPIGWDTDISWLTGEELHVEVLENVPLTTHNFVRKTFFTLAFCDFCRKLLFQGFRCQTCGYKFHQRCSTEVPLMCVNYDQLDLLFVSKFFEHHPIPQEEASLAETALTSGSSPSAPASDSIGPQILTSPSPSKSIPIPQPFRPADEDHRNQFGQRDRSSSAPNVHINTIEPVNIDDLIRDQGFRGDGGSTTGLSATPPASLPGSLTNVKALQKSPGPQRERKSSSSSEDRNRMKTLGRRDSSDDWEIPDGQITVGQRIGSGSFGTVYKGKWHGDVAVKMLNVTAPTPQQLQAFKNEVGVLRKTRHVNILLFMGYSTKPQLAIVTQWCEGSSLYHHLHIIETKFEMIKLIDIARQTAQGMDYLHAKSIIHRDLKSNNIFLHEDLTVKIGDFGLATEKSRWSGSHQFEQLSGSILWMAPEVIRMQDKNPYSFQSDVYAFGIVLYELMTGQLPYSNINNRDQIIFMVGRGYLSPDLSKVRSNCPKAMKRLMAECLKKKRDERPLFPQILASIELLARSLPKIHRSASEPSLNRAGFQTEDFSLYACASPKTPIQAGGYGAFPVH
Chain of Ret (h) (P07949 29-1114): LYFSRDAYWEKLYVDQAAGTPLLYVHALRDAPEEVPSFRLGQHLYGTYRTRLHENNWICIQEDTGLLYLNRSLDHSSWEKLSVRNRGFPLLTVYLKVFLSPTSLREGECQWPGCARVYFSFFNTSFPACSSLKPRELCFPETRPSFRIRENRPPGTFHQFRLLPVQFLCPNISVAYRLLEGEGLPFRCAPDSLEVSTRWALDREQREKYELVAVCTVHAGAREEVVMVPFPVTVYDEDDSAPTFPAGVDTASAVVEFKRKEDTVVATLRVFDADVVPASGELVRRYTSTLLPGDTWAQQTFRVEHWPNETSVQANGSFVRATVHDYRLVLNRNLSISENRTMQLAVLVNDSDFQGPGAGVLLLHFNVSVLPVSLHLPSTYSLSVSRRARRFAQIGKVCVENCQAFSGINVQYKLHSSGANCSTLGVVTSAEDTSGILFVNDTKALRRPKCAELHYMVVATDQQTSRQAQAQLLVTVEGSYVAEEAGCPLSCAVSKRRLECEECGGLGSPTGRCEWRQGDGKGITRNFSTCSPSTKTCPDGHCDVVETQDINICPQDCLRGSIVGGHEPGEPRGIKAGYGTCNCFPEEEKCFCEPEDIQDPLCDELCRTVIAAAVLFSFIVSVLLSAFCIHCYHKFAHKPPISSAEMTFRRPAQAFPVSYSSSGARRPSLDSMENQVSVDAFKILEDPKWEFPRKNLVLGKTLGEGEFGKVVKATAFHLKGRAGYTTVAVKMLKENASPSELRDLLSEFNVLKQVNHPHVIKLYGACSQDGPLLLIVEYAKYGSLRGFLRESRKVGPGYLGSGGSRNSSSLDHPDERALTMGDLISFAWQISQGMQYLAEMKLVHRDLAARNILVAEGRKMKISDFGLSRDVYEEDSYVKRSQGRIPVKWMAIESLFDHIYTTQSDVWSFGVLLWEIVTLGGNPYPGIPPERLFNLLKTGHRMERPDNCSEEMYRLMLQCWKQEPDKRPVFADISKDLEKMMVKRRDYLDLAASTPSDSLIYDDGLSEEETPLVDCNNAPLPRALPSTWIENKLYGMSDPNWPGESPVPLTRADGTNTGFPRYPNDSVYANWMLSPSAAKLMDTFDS

In the case of `CCOC(=O)c1n[nH]c2cc(-c3cc(NC(=O)Nc4ccc(Cl)c(C(F)(F)F)c4)ccc3C)ccc12` [Example 57, ethyl 6-(5-(3-(4-chloro-3-(trifluoromethyl)phenyl)ureido)-2-methylphenyl)-1H-indazole-3-carboxylate], the IC50 in series [1] was under 10 µM. Further, in [2], the GI50 was under 10 µM.
Take `CNC(=O)c1n[nH]c2cc(-c3ccc(NC(=O)c4cccc(C(F)(F)F)c4)cc3)ccc12` [Example 24, N-methyl-6-(4-(3-(trifluoromethyl)benzamido)phenyl)-1H-indazole-3-carboxamide]: the IC50 in series [1] was under 10 µM. In series [2], this compound yielded a GI50 of under 10 µM.
In the case of `CCCS(=O)(=O)Nc1ccc(F)c(C(=O)c2c[nH]c3ncc(Cl)cc23)c1F` [PLX-4720], the IC50 in [3] is 0.5 µM.
Turning to `O=C(Nc1cccc(-c2ccc3c(C(=O)NCCN4CCOCC4)n[nH]c3c2)c1)c1cccc(C(F)(F)F)c1` [Example 50, N-(2-morpholinoethyl)-6-(3-(3-(trifluoromethyl)benzamido)phenyl)-1H-indazole-3-carboxamide], the IC50 in series [1] was under 10 µM.
With `CNC(=O)c1cc(Oc2ccc(NC(=O)Nc3ccc(Cl)c(C(F)(F)F)c3)cc2)ccn1` [Sorafenib], in [4] (600 mg twice a day), the “skin toxicity side effect, grade” value was 3. Also, the “MTD (maximum tolerated dose)” value in series [4] (twice a day, phase II clinical investigation) is recorded as 400 mg.
Take `Cc1cn(-c2cc(NC(=O)c3ccc(C)c(Nc4nccc(-c5cccnc5)n4)c3)cc(C(F)(F)F)c2)cn1` [Nilotinib]: in series [5], the “activity on T3151-Bcr-Abl” value was “inactive”.
In the case of `O=C(Nc1cccc(-c2ccc3c(CO)n[nH]c3c2)c1)Nc1ccc(Cl)c(C(F)(F)F)c1` [Example 79, 1-(4-chloro-3-(trifluoromethyl)phenyl)-3-(3-(3-(hydroxymethyl)-1H-indazol-6-yl)phenyl)urea], the IC50 in series [1] is under 10 µM. The GI50 in series [2] was under 10 µM.
Turning to `CCOC(=O)c1n[nH]c2cc(-c3cccc(NC(=O)Cc4ccc(OC)c(OC)c4)c3)ccc12` [Example 48, ethyl 6-(3-(2-(3,4-dimethoxyphenyl)acetamido)phenyl)-1H-indazole-3-carboxylate], the IC50 in series [1] is under 10 µM. The GI50 in series [2] is under 10 µM.
With `CCOC(=O)c1n[nH]c2cc(-c3ccc(NC(=O)c4csc(-c5ccncc5)n4)cc3)ccc12` [Example 17, ethyl 6-(4-(2-(pyridin-4-yl)thiazole-4-carboxamido)phenyl)-1H-indazole-3-carboxylate], in series [1], the IC50 was under 10 µM.
Consider `CCOC(=O)c1n[nH]c2cc(-c3cccc(NC(=O)Nc4cccc(Cl)c4Cl)c3)ccc12` [Example 54, ethyl 6-(3-(3-(2,3-dichlorophenyl)ureido)phenyl)-1H-indazole-3-carboxylate], for which the IC50 in series [1] is under 10 µM. In series [2], this compound displayed a GI50 of under 10 µM.
As for `O=C(Nc1cccc(-c2ccc3c(C(=O)NCCN4CCOCC4)n[nH]c3c2)c1)Nc1ccc(Cl)c(C(F)(F)F)c1` [Example 58, 6-(3-(3-(4-chloro-3-(trifluoromethyl)phenyl)ureido)phenyl)-N-(2-morpholinoethyl)-1H-indazole-3-carboxamide], the IC50 in [1] was under 10 µM. The compound further came in with a GI50 in series [2] of under 10 µM.
With `CCOC(=O)c1n[nH]c2cc(-c3ccc(NC(=O)c4cnn(-c5ccc(OC)cc5)c4C(F)(F)F)cc3)ccc12` [Example 8, ethyl 6-(4-(1-(4-methoxyphenyl)-5-(trifluoromethyl)-1H-pyrazole-4-carboxamido)phenyl)-1H-indazole-3-carboxylate], in series [1], the IC50 was under 10 µM. The GI50 in [2] was under 10 µM.
For the compound `COc1ccc(-n2ncc(C(=O)Nc3ccc(-c4ccc5c(C(=O)NCCN6CCOCC6)n[nH]c5c4)cc3)c2C(F)(F)F)cc1` [Example 34, 6-(4-(1-(4-methoxyphenyl)-5-(trifluoromethyl)-1H-pyrazole-4-carboxamido)phenyl)-N-(2-morpholinoethyl)-1H-indazole-3-carboxamide], in series [2], the GI50 was under 10 µM.
Consider `Cc1ccc(NC(=O)Nc2ccc(Cl)c(C(F)(F)F)c2)cc1-c1ccc2c(C(=O)NCCN3CCOCC3)n[nH]c2c1` [Example 64, 6-(5-(3-(4-chloro-3-(trifluoromethyl)phenyl)ureido)-2-methylphenyl)-N-(2-morpholinoethyl)-1H-indazole-3-carboxamide], for which the IC50 is under 10 µM in [1]; 141 µM in [6]; 332 µM in [7]; 603 µM in series [8]; 167 µM in series [9]; 1510 µM in series [10]. In addition, in series [11], the IC50 was determined as 137 µM. Besides, in [2], the GI50 was under 10 µM.
As to `CCOC(=O)c1n[nH]c2cc(-c3ccc(NC(=O)Nc4ccc(Cl)c(C(F)(F)F)c4)cc3)ccc12` [Example 21, ethyl 6-(4-(3-(4-chloro-3-(trifluoromethyl)phenyl)ureido)phenyl)-1H-indazole-3-carboxylate], the IC50 in [1] was under 10 µM. Further, the GI50 in series [2] was under 10 µM.
For the compound `Cc1cc(C(=O)Nc2ccc(-c3ccc4c(C(=O)NCCN5CCOCC5)n[nH]c4c3)cc2)c(C)o1` [Example 33, 6-(4-(2,5-dimethylfuran-3-carboxamido)phenyl)-N-(2-morpholinoethyl)-1H-indazole-3-carboxamide], the GI50 in series [2] was under 10 µM.
On the same count and under the same terms, under `CNC(=O)c1n[nH]c2cc(-c3ccc(NC(=O)c4ccc(OC5CCN(C)CC5)c(C(F)(F)F)c4)cc3)ccc12` [Example 40, N-methyl-6-(4-(4-(1-methylpiperidin-4-yloxy)-3-(trifluoromethyl)benzamido)phenyl)-1H-indazole-3-carboxamide] stands under 10 µM.

One may read the IC50 as the point on the concentration scale where inhibition reaches its midpoint. The term GI50 denotes the concentration at which growth is held to half of that of the control.
